Measurements published in patent publication US20180353568A1 (priority 2015, published 2018).
Entries after “also recorded” stand apart in the source; their conditions may differ.

Key:
[1] = system: 293T cells
[2] = system: envelope G protein of vesicular stomatitis virus, VSV-G (HIV-luc/VSV-G pseudotype virus); type: cell-based
[3] = system: HIV-luc/Zaire EBOV-GP2014 pseudotype virus; type: cell-based, Ebola virus
[4] = system: HIV-luc/Zaire EBOV-GP2014 pseudotype virus; type: cell-based, Ebola virus; remark: listed apart in the source
[5] = system: envelope protein GP of Ebola virus (HIV-luc/EBOV-GP pseudotype virus); type: cell-based
[6] = system: HIV-luc/Zaire EBOV-GP2014 pseudotype virus; type: cell-based, Ebola virus; remark: listed apart in the source
[7] = system: HIV-luc/Zaire EBOV-GP2014 pseudotype virus; type: cell-based, Ebola virus; remark: listed apart in the source

teicoplanin
cytotoxicity in 293T cells [1]: non-cytotoxic
toxicity (FIG. 3, CC50 test) [1]: low
inhibitory effect on the envelope G protein of vesicular stomatitis virus, VSV-G [2]: no inhibitory effect
inhibitory effect on virus in A549 cells [3]: good inhibitory effect
inhibitory effect on virus in Hela cells [4]: good inhibitory effect
inhibitory effect on the envelope protein of Ebola virus, EBOV-GP (entry) [5]: can inhibit the entry of Ebola virus; also recorded: good inhibitory effect
IC50 ([5]; read-out: IC50 of teicoplanin (inhibition of Ebola pseudovirus infecting 293T cells)): 200 nM
inhibitory effect on virus in HUVECs [6]: good inhibitory effect
inhibitory effect on virus in THP-1 cells [7]: good inhibitory effect
